“Also recorded” adds a separate entry of the source.
Test system: Angelman syndrome (AS) mice
Experiment: Immunofluorescence histopathology of brain sections after treatment (oligodendroglia, myelination, ESRβ, UBE3A)
Assay type: in vivo, mouse
Description: For immunofluorescence with brain tissue sections, mice were sacrificed under deep anesthesia using Xylazine (10 mg/kg body weight) and Ketamine (100 mg/kg body weight) and perfused through the left cardiac ventricle with ice-cold phosphate-buffered saline (PBS) followed by 4% paraformaldehyde (PFA) in PBS. Whole brains were removed and post-fixed in 4% PFA overnight at 4° C. followed by sequential immersion in 15% and 30% sucrose for cryoprotection. The brain was then dissected and 25 μm coronal sections were prepared with a Cryostat Leica. Sections collected on the charged microscope slides (Globe Scientific #1354W) were processed for immunohistochemical staining as follows. In brief, tissue sections were blocked for 1 hour at room temperature (RT) in 5% goat/donkey serum (G/DS) with 0.3% Triton-X100 in 0.1 M phosphate buffer (0.3% PBST). After blocking, tissue sections were incubated in primary antibody diluted in blocking solution overnight at 4° C. The following day, sections were briefly washed 3 times for 5 min each at RT in PBS followed by incubation with secondary antibodies diluted in blocking solution for 2 hours at RT. Sections were then briefly washed 3 times for 5 min each at RT in PBS and mounted using EMS Shield Mount with Dabco (Electron Microscopy Sciences, #17985-200) mounting media with 4′,6-diamidino-2-phenylindole (DAPI) (Vector Laboratories, #H-1200) to stain cell nuclei.
For the purpose of imaging brain sections, we utilized both the BioTek Lionheart FX Automated Microscope and the Zeiss LSM 880 confocal laser-scanning microscope. The subsequent image analysis and quantification were conducted using NIH ImageJ software, employing the particle and intensity analysis macro for detailed examination. Channels were separated, and images from various experimental groups were thresholded uniformly to identify individual cells. In each brain, 20-30 cells were outlined for analysis. To determine the extent of colocalization, we applied the Zeiss ZEN Microscopy Software's colocalization coefficient analysis tool, which allowed for precise measurement of overlapping signals within the selected cells.
To assess the levels of UBE3A protein within oligodendroglial cells, dual immunofluorescent staining was conducted. This involved the use of a UBE3A antibody sourced from Santa Cruz Biotechnology (sc-10294) and an Olig2 antibody provided by Aves Labs (#OLIG2-0020). The corresponding secondary antibodies were tagged with Alexa 647 and Alexa 488 fluorophores. These procedures were applied to coronal brain sections harvested from postnatal days 7-10, 30, and 42 from both control and Angelman Syndrome (AS) mice. We utilized a 20× objective on a GENS microscope to capture confocal images of UBE3A and Olig2 expression. Subsequent analysis was performed using NIH ImageJ software, where fluorescence intensities, denoted in arbitrary units (a.u.), were measured to determine the relative quantities of UBE3A protein. The quantification process involved delineating areas of interest around Olig2-positive cells. Quantitative analysis of ESR2 and MBP proteins was carried out using a similar method.
ESRβ agonist AC-186 treatment in vivo. 10 mg/kg AC-186 was daily IP delivered after dissolved at high concentration (30 mg/ml) in DMSO and further diluted in 20% PEG300. Vehicle groups received the same volume and concentration of diluted DMSO in 20% PEG300. Treatment started at P13 and continued until mice were sacrificed at P42.

[1] = corpus callosum, AS mice vs AS saline
[2] = corpus callosum, AS mice vs AS vehicle
[3] = cortex, hippocampus, and fimbria, AS mice vs AS saline

Oc1ccc(C2(c3ccccc3F)CCC(F)(F)CC2)cc1 [AC-186]
UBE3A intensity (AS mice vs AS saline): did not modify; also recorded: comparable | oligodendrocyte populations and myelination (AS mouse brains): notably restored | ESRβ intensity in Olig2-positive and O4-positive cells [1]: slightly increased; also recorded: increased | O4-positive cells/mm^2 [1]: increased | Olig2-positive cells/mm^2 [1]: increased | OPC density (PDGFRa-positive cells per square millimeter) [2]: increased | proliferating OPCs (Ki67 and PDGFRa dual positive, proportion of total OPCs) [2]: increased | MBP intensity [3]: increased | O4-positive cell density [3]: increased | Olig2-positive cell density [3]: increased | oligodendrocyte populations and myelination (wildtype mice): no impact
